# Reference: patent US10294234B2, “HIV inhibitor compounds” (priority 2017, dated 2019)
# Like-named read-outs stand apart in the source and are kept apart here.
# How the values were obtained:
# [1] = tested on: HIV-1 (IIIB) in MT-4 cells; test: MT-4 HIV assay; assay type: cell-based; settings: Human immunodeficiency virus 1, MT4, 120 h; HIV-1 (IIIB), MT-4 cells, 5 days, Cell Titer Glo; read-out: EC50
# How it was run: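 Antiviral activity was read by Cell Titer Glo after a 5-day, 37 °C culture of MT-4 cells pre-infected with a 1:250 dilution of HIV-1 (IIIB). Compounds were tested as threefold dilution series in complete RPMI. Controls were no drug, mock infection and 5 uM AZT.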
# [2] = How it was run: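 LC/MS/MS read-out of parent compound remaining; in vitro t1/2 converted to Clint. Incubation: 1 uM compound, 0.5 mg/mL dog/rat/human liver microsomes, NADPH-regenerating system, duplicate sets, time-points 2–65 minutes.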
# [3] = 3H Human Predicted Clearance Assay (tritiated analogs); assay type: in vitro ADME; settings: human, 1 uM
# Method: 3H Human Predicted Clearance Assay:
# For certain compounds, tritiated analogs (H^3) were prepared to further determined their human predicted clearance with increased resolution. Those studies were performed as described above using the tritiated analogs. Data from those compounds is found in Table 2 below and reported in FIG. 1 (note ATV and DRV were not tritiated).
# in vivo [4] = test: in vivo
# Method: Pharmacokinetic Profiling Dog PK
# Each dosing group consisted of three non-naïve male beagle dogs. At dosing, the animals weighed between 9 to 12 kg. The animals were fasted overnight prior to dose administration and up to four hours after dosing. The test article was administered by intravenous infusion over 30-minutes. The rate of infusion was adjusted according to the body weight of each animal to deliver a dose of 0.5 or 1.0 mg/kg. For the oral dosing group, the test article was administered by oral gavage at a dose volume of 2 mL/kg.
# Serial venous blood samples (approximately 1.0 mL each) were collected at predose and 0.25, 0.48, 0.58, 0.75, 1.0, 1.5, 2, 4, 8, 12 and 24 hours post dose from each animal for the IV dosing group; blood samples were collected at predose, 0.25, 0.50, 1, 2 4, 6, 8,12 and 24 hours post dose for the oral dosing group. The blood samples were collected into Vacutainer™ tubes containing EDTA-K2 as the anti-coagulant and were immediately placed on wet ice pending centrifugation for plasma. An LC/MS/MS method was used to measure the concentration of test compound in plasma. Non-compartmental pharmacokinetic analysis was performed on the plasma concentration-time data. VSS=apparent volume of distribution, t1/2=half life, F=oral bioavailability.
# in vivo [5] = settings: for Vd / RAT IV CL / RAT IV T1/2: iv
# How it was run: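 Male SD rats (n=3/group, 0.27–0.32 kg), fasted overnight, given 0.5 or 1.0 mg/kg by 30-min IV infusion, or by oral gavage. Serial plasma samples (EDTA-K2) over 24 h measured by LC/MS/MS; non-compartmental PK analysis.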
# [6] = tested on: HIV-1 (IIIB) in MT-4 cells; test: MT-4 HIV High Resolution Antiviral Assay; assay type: cell-based; settings: for EC50: Human immunodeficiency virus 1, IIIB, MT4; for EC95: calculated from Hill coefficient and EC50; for Hill-coefficient: Graph Pad Prism
# Method: Compounds were tested in a high-throughput 384-well assay format for their ability to inhibit the replication of HIV-1 (IIIB) in MT-4 cells. Compounds were serially diluted (1:3) in DMSO on 384-well polypropylene plates and further diluted 200-fold into complete RPMI media (10% FBS, 1% P/S) using the Biotek Micro Flow and Agilent ECHO acoustic dispenser. Each plate contained up to 8 test compounds, with negative (No Drug Control) and 5 uM AZT positive controls. MT-4 cells were pre-infected with 10 uL of either RPMI (mock-infected) or a fresh 1:250 dilution of an HIV-1 (IIIB) concentrated virus stock. Infected and uninfected MT-4 cells were further diluted in complete RPMI media and added to each plate using a Micro Flow dispenser. After 5 days incubation in a humidified and temperature controlled incubator (37° C.), Cell Titer Glo (Promega) was added to the assay plates to quantify the amount of luciferase. EC50 and CC50 values were defined as the compound concentration that causes a 50% decrease in luminescence signal, and were calculated using a sigmoidal dose-response model to generate curve fits.
# (§1) MT-4 HIV High Resolution Antiviral Assay
# (§2) Assay protocol is identical to that described for the MT-4 antiviral assay with the following changes: Each drug is run in 2 series of quadruplicates with different starting concentrations for each series and 19 1.5 fold dilutions performed across the plate. […] Data is analyzed and Hill coefficients determined in Graph Pad Prism (San Diego, Calif.). EC95s were determined by the formula EC95=(19)^I/hill coefficient×EC50. HD values were determined for certain compounds and reported in Table 5 below as an illustrative example.
# [7] = tested on: HIV-1 (IIIB) in MT-4 cells; test: Protein adjusted EC95 (high resolution antiviral assay with equilibrium dialysis plasma protein binding); assay type: cell-based; settings: EC95 adjusted for plasma protein binding (10% plasma vs cell culture media)
# Method: as §1, §2
# Equilibrium Dialysis Assay
# Pooled plasma (from at least 3 males and 3 females) was from Bioreclamation IVT. Sodium EDTA was used as the anticoagulant. 10% plasma was diluted in 0.133M phosphate buffer consisted of 1.5% (w/v) Sodium EDTA.
# RPMI cell culture media consisted 10% FBS was provided by biology department, Gilead Sciences, Inc.
# Plasma Protein Binding Assay:
# Studies were conducted in duplicate or triplicate using a Dianorm Equilibrium Dialyser (Harvard Apparatus, Holliston Mass.) with each cell consisting of a semipermeable membrane (2.4 cm working diameter) separating two 1 mL PTFE half-cells (Weder HG, Schildknecht J, Kesselring P. A new equilibrium dialyzing system. American Laboratory. 1971; 10: 15-21). Prior to the study, the dialysis membrane was soaked for approximately one hour in 0.133 M phosphate buffer, pH 7.4. 10% plasma and cell culture media spiked with 1 μM compound (1 mL) were placed into opposite sides of the assembled dialysis cells and the dialysis cells were then rotated slowly in a 37° C. water bath. After the equilibration period, matrix-containing samples from both sides were drained into pre-weighed polypropylene tubes. Post-dialysis 10% plasma samples were transferred into centrifuge tubes containing 1 mL of blank cell culture media. Post-dialysis cell culture media samples were transferred into centrifuge tubes containing 1 mL of blank 10% plasma. All samples weights were measured and recorded for calculations of volume shift and recovery. […]
# recombinant HIV protease = recombinant HIV protease (Human immunodeficiency virus type 1 group M subtype B, UniProt P04585); test: biochemical
# Method: Inhibitor potency was measured using an enzymatic assay with a fluorogenic readout. […] After a 20-minute pre-incubation, the enzymatic reaction was initiated by the addition of the fluorogenic substrate (2-aminobenzoyl)Thr-Ile-Nle-(p-nitro)Phe-Gln-Arg (Bachem) to a final concentration of 40 μM. The total volume of the assay solution was 100 µL. The reaction was measured over 20 minutes on a Tecan Infinite M1000 plate reader using an excitation wavelength of 320 nm and a detection wavelength of 420 nm. The slopes of the progress curves were the measure of reaction rates.
# [8] = male beagle dogs, IV infusion over 30 minutes, 0.5 or 1.0 mg/kg
# [9] = male, beagle, dog, in vivo, po, 2 mg/kg
# [10] = male, SD, rat, in vivo, po, 2.5 mg/kg
smiles,measurement,setting,value
"COC(=O)N[C@H](C(=O)N[C@@H](Cc1ccc(C#Cc2cnc(N3CC4CCC(C3)N4C3COC3)nc2)cc1)[C@@H](O)CN(Cc1c(F)cc(-c2ccn(C(F)F)n2)cc1F)NC(=O)[C@@H](NC(=O)OC)C(C)(C)C(F)(F)F)C(C)(C)C(F)(F)F [Example 171, Methyl ((5S,8S,9S,14S)-11-(4-(1-(difluoromethyl)-1H-pyrazol-3-yl)-2,6-difluorobenzyl)-16,16,16-trifluoro-9-hydroxy-15,15-dimethyl-8-(4-((2-(8-(oxetan-3-yl)-3,8-diazabicyclo[3.2.1]octan-3-yl)pyrimidin-5-yl)ethynyl)benzyl)-3,6,13-trioxo-5-(1,1,1-trifluoro-2-methylpropan-2-yl)-2-oxa-4,7,11,12-tetraazahexadecan-14-yl)carbamate]",EC50,[1],4.59 nM
same,Dog. Pred. Cl.,"[2]; dog, microsomes",0.27 L/H/kg
same,Human Pred Cl.,"[2]; human, microsomes",<0.11 L/H/kg
same,Rat. Pred. Cl.,"[2]; rat, microsomes",0.215 L/H/kg
same,3H Human Predicted Cl.,[3],0.02
same,DOG IV CL,"in vivo [4]; dog, in vivo, iv",0.26 L/h/kg
same,DOG IV T1/2,in vivo [4]; [8],13.4 h
same,Vd,"in vivo [4]; male, beagle, dog, in vivo, iv",3.12 L/kg
same,DOG PO F,in vivo [4]; [9],23%
same,Vd,"in vivo [5]; male, SD, rat, in vivo",8.11 L/kg
same,RAT PO F,in vivo [5]; [10],39%
same,RAT IV CL,"in vivo [5]; rat, in vivo",0.32 L/h/kg
same,RAT IV T1/2,"in vivo [5]; rat, in vivo",22.5 h
"COC(=O)N[C@H](C(=O)N[C@@H](Cc1ccc(C#Cc2ccc(N3CC4CCC(C3)N4C3COC3)nc2)cc1)[C@@H](O)CN(Cc1c(F)cc(-c2ccn(C3CC3)n2)cc1F)NC(=O)[C@@H](NC(=O)OC)C(C)(C)C(F)(F)F)C(C)(C)C(F)(F)F [Example 170, Methyl ((5S,8S,9S,14S)-11-(4-(1-cyclopropyl-1H-pyrazol-3-yl)-2,6-difluorobenzyl)-16,16,16-trifluoro-9-hydroxy-15,15-dimethyl-8-(4-((6-(8-(oxetan-3-yl)-3,8-diazabicyclo [3.2.1]octan-3-yl)pyridin-3-yl)ethynyl)benzyl)-3,6,13-trioxo-5-(1,1,1-trifluoro-2-methylpropan-2-yl)-2-oxa-4,7,11,12-tetraazahexadecan-14-yl)carbamate]",EC50,[1],4.13 nM
same,Human Pred Cl.,"[2]; human, microsomes",<0.11 L/H/kg
same,Rat. Pred. Cl.,"[2]; rat, microsomes",<0.18 L/H/kg
same,3H Human Predicted Cl.,[3],0.05
same,DOG IV CL,"in vivo [4]; dog, in vivo, iv",1.39 L/h/kg
same,DOG IV T1/2,in vivo [4]; [8],7.62 h
same,Vd,"in vivo [4]; male, beagle, dog, in vivo, iv",4.35 L/kg
same,DOG PO F,in vivo [4]; [9],2.45%
same,Vd,"in vivo [5]; male, SD, rat, in vivo",3.32 L/kg
same,RAT PO F,in vivo [5]; [10],36.6%
same,RAT IV CL,"in vivo [5]; rat, in vivo",0.35 L/h/kg
same,RAT IV T1/2,"in vivo [5]; rat, in vivo",9.38 h
"COC(=O)N[C@H](C(=O)N[C@@H](Cc1ccccc1)[C@@H](O)CN(Cc1ccc(-c2ccccn2)cc1)NC(=O)[C@@H](NC(=O)OC)C(C)(C)C)C(C)(C)C [atazanavir, methyl N-[(2S)-1-[2-[(2S,3S)-2-hydroxy-3-[[(2S)-2-(methoxycarbonylamino)-3,3-dimethylbutanoyl]amino]-4-phenylbutyl]-2-[(4-pyridin-2-ylphenyl)methyl]hydrazinyl]-3,3-dimethyl-1-oxobutan-2-yl]carbamate, reference compound]",Dog. Pred. Cl.,"[2]; dog liver microsomes 0.5 mg/mL, 1 uM compound, NADPH",1.4 L/H/kg
same,Human Pred Cl.,"[2]; human liver microsomes 0.5 mg/mL, 1 uM compound, NADPH",1.07 L/H/kg
same,Rat. Pred. Cl.,"[2]; rat liver microsomes 0.5 mg/mL, 1 uM compound, NADPH",3.7 L/H/kg
same,DOG IV CL,in vivo [4]; [8],1.0 L/h/kg
same,DOG IV T1/2,in vivo [4]; [8],1.3 h
same,DOG PO F,"in vivo [4]; male beagle dogs, oral gavage, PO dose 10 mg/kg",48%
same,Vd,"in vivo [4]; male, beagle, dog, plasma, iv",0.9 L/kg
same,Vd,"in vivo [5]; male, SD, rat, in vivo",0.87 L/kg
same,RAT PO F,"in vivo [5]; male, SD, rat, in vivo, po, 5 mg/kg",38%
same,RAT IV CL,"in vivo [5]; rat, in vivo",2.7 L/h/kg
same,RAT IV T1/2,"in vivo [5]; rat, in vivo",0.37 h
same,EC50,"[6]; high resolution assay, 40 data points, MT-4 cells, read-out: EC50",9.7 nM
same,EC95,[6],25 nM
same,Hill-coefficient,[6]; high resolution assay,3.1
same,Protein Adjusted EC95,[7],75 nM
same,Ki,recombinant HIV protease,0.035 nM
"CC(C)CN(C[C@@H](O)[C@H](Cc1ccccc1)NC(=O)O[C@H]1CO[C@H]2OCC[C@H]21)S(=O)(=O)c1ccc(N)cc1 [darunavir, [(3aS,4R,6aR)-2,3,3a,4,5,6a-hexahydrofuro[2,3-b]furan-4-yl] N-[(2S,3R)-4-[(4-aminophenyl)sulfonyl-(2-methylpropyl)amino]-3-hydroxy-1-phenylbutan-2-yl]carbamate, reference compound]",DOG PO F,"in vivo [4]; male beagle dogs, oral gavage, PO dose 2 mg/kg",38%
same,Vd,"in vivo [4]; male, beagle, dog, in vivo, iv",0.87 L/kg
same,RAT PO F,"in vivo [5]; male SD rats, oral gavage, PO dose 2.0 mg/kg",24%
same,Vd,"in vivo [5]; male, SD, rat, in vivo",0.73 L/kg
same,EC50,[6],7.2 nM
same,EC95,[6],19.9 nM
same,Hill-coefficient,[6]; high resolution assay,2.9
same,Protein Adjusted EC95,[7],42 nM
